# *1 amine or outer side, *2 acyl side, *3 side chain or, on linkers, in order; H or OH if unused. Where a SMILES comes first, the peptide text is derived from it. Bridges are numbered along the chain shown (N, C = ends). [ ]: non-standard residue; d: D form. The star is where a group is joined. hPhe(3-Cl-4-CF3) = N[C@@H](CCc1ccc(C(F)(F)F)c(Cl)c1)C(=O)O; NPrPhe(4-CF3) = CCCN[C@@H](Cc1ccc(C(F)(F)F)cc1)C(=O)O; X30 = CCN([C@H](C(=O)[*:2])C1CCCC1)[*:1]; NMeD = CN[C@@H](CC(=O)O)C(=O)O; NMeL = CN[C@@H](CC(C)C)C(=O)O; Morpholide = C1CN(*)CCO1; Ac4c = NC1(C(=O)O)CCC1; Sar = CNCC(=O)O
# What was measured:
# [1] = target: GDP-bound NRAS wild-type protein (Homo sapiens, UniProt P01111); assay: Binding to NRAS by surface plasmon resonance (SPR), Single Cycle Kinetics; details: for NRAS/KRAS (ratio of KD value with respect to GDP-bound NRAS wild-type protein to KD value with respect to KRAS): class symbols; for NRAS/KRAS (ratio of KD value for NRAS to KD value for KRAS) / NRAS/KRAS (ratio of KD value with respect to NRAS to KD value with respect to KRAS): GDP-bound NRAS wild-type vs GDP-bound KRAS wild-type, SPR
# [2] = target: GDP-bound HRAS wild-type protein (Homo sapiens, UniProt P01112); assay: Binding to HRAS by surface plasmon resonance (SPR), Single Cycle Kinetics; details: for HRAS/KRAS (ratio of KD value with respect to GDP-bound HRAS wild-type protein to KD value with respect to KRAS): class symbols; for HRAS/KRAS (ratio of KD value for HRAS to KD value for KRAS) / HRAS/KRAS (ratio of KD value with respect to HRAS to KD value with respect to KRAS): GDP-bound HRAS wild-type vs GDP-bound KRAS wild-type, SPR
# Chain of GDP-bound HRAS wild-type protein (P01112 whole entry): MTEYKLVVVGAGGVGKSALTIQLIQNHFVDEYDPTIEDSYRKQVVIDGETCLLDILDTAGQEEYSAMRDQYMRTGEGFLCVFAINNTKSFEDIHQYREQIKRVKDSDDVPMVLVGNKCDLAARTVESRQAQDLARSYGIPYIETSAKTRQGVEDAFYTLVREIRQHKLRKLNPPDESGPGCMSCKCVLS
# Chain of GDP-bound NRAS wild-type protein (P01111 whole entry): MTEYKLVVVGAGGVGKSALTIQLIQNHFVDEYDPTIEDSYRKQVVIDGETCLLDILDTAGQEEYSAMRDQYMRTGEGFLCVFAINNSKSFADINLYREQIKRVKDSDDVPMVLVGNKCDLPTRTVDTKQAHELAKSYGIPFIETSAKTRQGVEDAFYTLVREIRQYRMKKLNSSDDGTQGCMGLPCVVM
structure (smiles),measurement,setting,value
CCO[C@@H]1C[C@H]2C(=O)NC3(CC(C)(C)C3)C(=O)N(C)[C@@H](C3CCCC3)C(=O)N(C)[C@H](C(=O)N(C)C)CC(=O)N(C)[C@@H](CC(F)(F)F)C(=O)N[C@@H]([C@@H](C)CC)C(=O)N(C)CC(=O)N(C)[C@H]3C/C=C\CCN(C3=O)[C@@H](Cc3ccc(C(F)(F)F)cc3)C(=O)N(C)CC(=O)N[C@@H](CCc3ccc(C(F)(F)F)c(Cl)c3)C(=O)N2C1 [PP2833],NRAS/KRAS (ratio of KD value with respect to GDP-bound NRAS wild-type protein to KD value with respect to KRAS),[1],A (a compound having 10 or more and less than 20 is denoted as A)
same,HRAS/KRAS (ratio of KD value with respect to GDP-bound HRAS wild-type protein to KD value with respect to KRAS),[2],A (a compound having 10 or more and less than 20 is denoted as A)
CCC[C@H]1C(=O)N[C@@H]([C@@H](C)CC)C(=O)N(C)CC(=O)N(C)[C@H]2C/C=C\CCN(C2=O)[C@@H](Cc2ccc(C)cc2)C(=O)N(C)CC(=O)N[C@@H](CCc2ccc(CC)c(Cl)c2)C(=O)N2C[C@H](OCC)C[C@H]2C(=O)NC2(CC(C)(C)C2)C(=O)N(C)[C@@H](C2CCCC2)C(=O)N(C)[C@H](C(=O)N(C)C)CC(=O)N1C [PP2778],NRAS/KRAS (ratio of KD value with respect to GDP-bound NRAS wild-type protein to KD value with respect to KRAS),[1],A (a compound having 10 or more and less than 20 is denoted as A)
same,HRAS/KRAS (ratio of KD value with respect to GDP-bound HRAS wild-type protein to KD value with respect to KRAS),[2],A (a compound having 10 or more and less than 20 is denoted as A)
CCO[C@@H]1C[C@H]2C(=O)NC3(CC(C)(C)C3)C(=O)N(C)[C@@H](C3CCCC3)C(=O)N(C)[C@H](C(=O)N(C)CC)CC(=O)N(C)[C@@H](CC)C(=O)N[C@@H]([C@@H](C)CC)C(=O)N(C)CC(=O)N(C)[C@H]3C/C=C\CCN(C3=O)[C@@H](Cc3ccc(C)cc3)C(=O)N(C)CC(=O)N[C@@H](CCc3cc(F)c(C(F)(F)F)c(F)c3)C(=O)N2C1 [PP1886],NRAS/KRAS (ratio of KD value for NRAS to KD value for KRAS),[1]; KD ratio,A (a compound having 10 or more and less than 20 is denoted as A)
same,HRAS/KRAS (ratio of KD value for HRAS to KD value for KRAS),[2]; KD ratio,B (a compound having 3 or more and less than 10 is denoted as B)
CCCN1C(=O)CN(C)C(=O)CN(C)C(=O)[C@H]([C@@H](C)CC)NC(=O)[C@H](CC(C)C)N(C)C(=O)C[C@@H](C(=O)N2CCOCC2)N(C)C(=O)[C@H](C2CCCC2)N(CC)C(=O)C2(CCC2)NC(=O)[C@@H]2CCCN2C(=O)[C@H](CCc2ccc(C(F)(F)F)c(Cl)c2)NC(=O)CN(C)C(=O)[C@@H]1Cc1ccc(C(F)(F)F)cc1 [PP1952] ([NMeL]I[Sar][Sar][NPrPhe(4-CF3)][Sar][hPhe(3-Cl-4-CF3)]P[Ac4c][X30][NMeD]-Morpholide; lactam N-11),NRAS/KRAS (ratio of KD value for NRAS to KD value for KRAS),[1]; KD ratio,B (a compound having 3 or more and less than 10 is denoted as B)
same,HRAS/KRAS (ratio of KD value for HRAS to KD value for KRAS),[2]; KD ratio,B (a compound having 3 or more and less than 10 is denoted as B)
CCO[C@@H]1C[C@H]2C(=O)NC3(CCC3)C(=O)N(C)[C@@H](C3CCCC3)C(=O)N(C)[C@H](C(=O)N3CCOCC3)CC(=O)N(C)[C@@H](CC)C(=O)N[C@@H]([C@@H](C)CC)C(=O)N(C)CC(=O)N(C)[C@H]3C/C=C\CCN(C3=O)[C@@H](Cc3ccc(C(F)(F)F)cc3)C(=O)N(C)CC(=O)N[C@@H](CCc3cc(F)c(C(F)(F)F)c(F)c3)C(=O)N2C1 [PP1092],NRAS/KRAS (ratio of KD value with respect to NRAS to KD value with respect to KRAS),[1]; KD ratio,A (a compound having 10 or more and less than 20 is denoted as A)
same,HRAS/KRAS (ratio of KD value with respect to HRAS to KD value with respect to KRAS),[2]; KD ratio,A (a compound having 10 or more and less than 20 is denoted as A)
CCO[C@@H]1C[C@H]2C(=O)NC3(CC(C)(C)C3)C(=O)N(C)[C@@H](C(CC)CC)C(=O)N(C)[C@H](C(=O)N(C)C)CC(=O)N(C)[C@@H](CC(C)C)C(=O)N[C@@H]([C@@H](C)CC)C(=O)N(C)CC(=O)N(C)[C@H]3C/C=C\CCN(C3=O)[C@@H](Cc3ccc(C)cc3)C(=O)N(C)CC(=O)N[C@@H](CCc3ccc(C(F)(F)F)c(OC)c3)C(=O)N2C1 [PP2168],NRAS/KRAS (ratio of KD value with respect to NRAS to KD value with respect to KRAS),[1],A (a compound having 10 or more and less than 20 is denoted as A)
same,HRAS/KRAS (ratio of KD value with respect to HRAS to KD value with respect to KRAS),[2],A (a compound having 10 or more and less than 20 is denoted as A)
CC[C@H](C)[C@@H]1NC(=O)[C@H](CC(C)C)N(C)C(=O)C[C@@H](C(=O)N2CCOCC2)N(C)C(=O)[C@H](C2CCCC2)N(C)C(=O)C2(CCC2)NC(=O)[C@@H]2C[C@@H](OCC(F)F)CN2C(=O)[C@H](CCc2cc(F)c(C(F)(F)F)c(F)c2)NC(=O)CN(C)C(=O)[C@H](Cc2ccc(C(F)(F)F)cc2)N2CCCCC[C@@H](C2=O)N(C)C(=O)CN(C)C1=O [PP1006],NRAS/KRAS (ratio of KD value with respect to NRAS to KD value with respect to KRAS),[1]; KD ratio,B (a compound having 3 or more and less than 10 is denoted as B)
same,HRAS/KRAS (ratio of KD value with respect to HRAS to KD value with respect to KRAS),[2]; KD ratio,B (a compound having 3 or more and less than 10 is denoted as B)
